Legend:
E0771-HER2 tumour = E0771-HER2 tumour model with HER2 expression in the liver (on-target, off-tumour toxicity)
Method: FIG. 26A: mouse model with expression of human HER2 antigen in the liver was constructed using a piggyback transposon system delivered via lipid nanoparticles (LNPs) encapsulating two plasmids, pCMV-hyPBase and pPB7 TBG.human HER2.P2A.IRFP720, at day −30. At day 0, 10^6 E0771-HER2 tumour cells were injected s.c. into the right flank at day 0. […] FIGS. 26B-26D: mouse tumour growth curves, measurements of mouse body weight, and survival curves, respectively. n=8 mice. P value in FIG. 26D was determined using Log-rank (Mantel-Cox) test. […] FIGS. 26E-26K: measurements of markers for inflammation and toxicity including AST, ALT, TNF-α, IFN-γ, and IL-2 levels in mouse blood at different time points. n=3 mice. […] H&E staining was conducted to detect liver damage in different groups. Scale bar: […]. […] Blue: DAPI: Red, CD3^+ T cells. […] (n=5).
T cell infiltration in the liver was measured using flow (FIG. 27A). FIG. 27B: liver T cells in different treatment groups at day 13. […] P values were indicated in FIGS. 27B-27C, analyzed by two-tailed unpaired Student's t-test. n=3.
Recently, a mouse model was reported with stable human HER2 antigen expression in the mouse liver. […] Here, the construction of this mouse model was modified and two plasmids were delivered using a lipid nanoparticle (FIGS. 25A-25D). […] Next, a E0771-HER2 tumour model was constructed in mice with HER2 expression in the liver (FIG. 26A). […] The mice were then monitored for tumour growth, body weight, and survival (FIGS. 26B-26D).

[1] = test system: Raji-Luc-GFP tumour cells; settings: AMD treatment group after SiTE
Method: FIG. 42A: NSG-SGM3 mice were treated with Busulfan at day −50 to remove mouse bone marrow. At day −49, 10^5 human CD34^+ fetal liver cells were i.v. injected to let the mouse develop a human immune system. 10^6 Raji-Luc-GFP tumour cells were i.v. injected at day −14. At days 1, 3, and 5, PBS or SiTE was i.v. injected (in the PBS group, only PBS was injected to tumour-bearing mice). […] FIGS. 42B-42E: mouse body weight, temperature, IL-6 levels, and mouse survival curves, respectively. n=10 mice. The red stars in FIG. 42B indicate that mice were euthanized. FIG. 42F: measurements of IL-1 in mouse blood at different time points. n=10 mice. […] Brain H&E staining (FIG. 42I) and human CD68 immunohistochemistry (FIG. 42J) images of mice at day 35. The data in FIGS. 42B-42F were plotted as mean z s.d. (n=10) from three independent experiments.
It was also evaluated if the SiTE can help control neurotoxicity. In the clinic, neurotoxicity is usually delayed and occurs several […] after CRS onset. Tumour-bearing mice were treated with SiTE at days 1, 3 and 5 (FIG. 42A). […] Rather than use a preventative strategy for treating CRS (FIGS. 40A-40M), here Tocilizumab was used to treat CRS when symptoms presented, so that it can be compared directly with the SiTE strategy. […] Studies have shown that IL-1 is the major cause of neurotoxicity.

[2] = test system: Raji-Luc-GFP tumour cells; assay: Humanized immune system mice with liver CD19 and Raji-Luc-GFP tumour; settings: AMD i.v. at day 7 after SiTE

NC12CC3CC(CC(C3)C1)C2 [AMD, adamantan-1-amine]
body weight (E0771-HER2 tumour; 100 μg AMD on day 13 after SiTE): gradual increases in body weight and recovered to a normal range
ALT and AST levels in blood (E0771-HER2 tumour; 24 h after AMD infusion following SiTE): returned to lower levels
T cells in liver tissue (E0771-HER2 tumour; AMD infusion after SiTE treatment): greatly decreased the number of T cells in liver tissue
animal survival [1]: prolonged animal survival
liver enzyme and cytokine levels in blood [2]: greatly decrease the liver enzyme levels and cytokine levels in blood
